Assay results as given in US12503476B2, “Ring-fused 2-pyridone compounds, methods for preparation thereof and their use in the treatment and/or prevention of a disease involving gram-positive bacteria” (QURETECH BIO AB, priority 2020, dated 2025).
Converted amounts (≈) assume the structure as drawn. Where two headings read alike, the source gives them in different places.

Experiments:
MRSA [1] = assay: Minimum Inhibitory Concentration (MIC) assay, MRSA; type: cell-based, Methicillin-resistant Staphylococcus aureus; details: 24 h, no antibiotic, 37° C., n.d. = activity not observed at the concentrations tested, read-out: MIC for MRSA
Protocol: (§1) The cultures (200 μl) were incubated at 37° C. for 24 h. […] The MIC was measured in micromolar concentration, i.e. μM. Objectively, this was determined by measuring the optical density (i.e. OD) of the test cultures at 600 nm using a spectrophotometer. As used herein, OD600 stands for optical density at a wavelength of 600 nm (i.e. 600 nanometers).

E. faecalis OG1RF = assay: Combined activity with gentamicin, vancomycin or ampicillin, E. faecalis OG1RF; type: cell-based, Enterococcus faecalis; details: gentamicin 16 μg/ml; for Synergistic effect when combined with gentamicin: 24 h
Protocol: […]. The concentrations used in the experiments with E. faecalis OG1RF were 16 μg/ml gentamicin, 1 μg/ml vancomycin or 1 μg/ml ampicillin. In experiments where combinations were tested against MRSA 1369, 0.05 μg/ml gentamicin, 1 μg/ml vancomycin or 16 μg/ml ampicillin was used.
Bacterial cultures (190 μl) at a starting OD=0.001 at OD600 were incubated together with either subinhibitory concentrations of gentamicin/vancomycin/ampicillin or compound alone, or a combination of the two. The cultures (200 μl) were incubated at 37° C. for 24 h. A control sample without compound and gentamicin/vancomycin/ampicillin but containing compound vehicle (DMSO) and gentamicin/vancomycin/ampicillin vehicle (MQ water) was performed the same way. After 24 h, the effect on bacterial growth compared to untreated control samples was determined by measuring optical density at 600 nm with a spectrophotometer.
[…]. MIC/MBC values for the compounds administered alone are also shown for comparison. Unless otherwise stated, the compound was provided in a concentration of 1 μM.

E. faecalis [2] = assay: Minimum Inhibitory Concentration (MIC) assay, E. faecalis; type: cell-based, Enterococcus faecalis; details: for MIC: first figure of MIC/MBC, read-out: MIC for E. faecalis; for Growth inhibition of the pathogen of interest compared to the compound of Example 14 in WO 2018/229141: conclusion from Table 3 (E. faecalis and MRSA)
Protocol: as §1

MRSA [3] = assay: Minimum Bactericidal Concentration (MBC) assay, MRSA; details: compound alone, no antibiotic, MIC cultures plated on BHI, second figure of MIC/MBC, n.d. = activity not observed at the concentrations tested; for MBC: Staphylococcus aureus, MRSA, read-out: MBC for MRSA, Table 3; for MBC for MRSA: Table 3
E. faecalis [4] = assay: Minimum Bactericidal Concentration (MBC) assay, E. faecalis; details: for MBC: Enterococcus faecalis, read-out: MBC for E. faecalis; for MBC for E. faecalis: Table 4, compound administered alone, second figure of MIC/MBC, n.d. = activity not observed
[5] = Staphylococcus aureus, MRSA, Table 3, compound alone, OD600, first figure of MIC/MBC
[6] = compound 1 μM, n.d. = activity not observed
[7] = subinhibitory compound 1-4 μM, OD600 24 h
[8] = Enterococcus faecalis, 24 h, Table 3, compound alone, no antibiotic, 24 h, 37° C., OD600, n.d. = activity not observed at the concentrations tested
[9] = Enterococcus faecalis, Table 4, compound administered alone, n.d. = activity not observed
[10] = Table 3, compound alone, no antibiotic, 24 h, 37° C., OD600, n.d. = activity not observed at the concentrations tested

Row | MIC (MRSA [1]; [5]) [µM] | MIC (E. faecalis [2]; [8]) [µM] | MIC (E. faecalis [2]; [9]) [µM] | SMILES | OD600 at 24 h when combined with gentamicin (E. faecalis OG1RF; compound 1 μM) | Synergistic effect when combined with gentamicin (E. faecalis OG1RF; [6]) | Growth inhibition of the pathogen of interest compared to the compound of Example 14 in WO 2018/229141 (E. faecalis [2]; compound alone) | MBC (MRSA [3]) [µM] | MBC (E. faecalis [4]) [µM] | further results
1 | 10 (≈ 5.12 µg/mL) | – | – | O=C(O)C12C[C@@H](Sc3ccccc3)C1Sc1c(C3CC3)c(Cc3cccc4ccccc34)cc(=O)n12 (stereo partly shown) [Example 27] | – | – | – | – | – | –
2 | 5 (≈ 2.77 µg/mL) | – | – | O=C(O)C12C[C@@H](c3c(Cl)cccc3Cl)C1Sc1c(C3CC3)c(Cc3cc4ccccc4s3)cc(=O)n12 (stereo partly shown) [Example 34] | – | – | – | – | – | –
3 | 3 (≈ 1.52 µg/mL) | 5 (≈ 2.54 µg/mL) | 5 (≈ 2.54 µg/mL) | Cc1cc(C)cc([C@@H]2CC3(C(=O)O)C2Sc2c(C4CC4)c(Cc4cccc5ccccc45)cc(=O)n23)c1 (stereo partly shown) [Example 21] | OD600 = 0.1 | Yes | substantially similar extent or to a higher extent | 7.5 (≈ 3.81 µg/mL) | 25 (≈ 12.7 µg/mL) | E. faecalis activity, combination with gentamicin compared to gentamicin alone, compound alone and comparative example alone (E. faecalis OG1RF; [7]): much larger extent
4 | 50 (≈ 20.3 µg/mL) | – | – | O=c1cc(Cc2cccc3ccccc23)c(C2CC2)c2n1C(CCB(O)O)CS2 (stereo not shown) [Example 35] | – | – | – | – | – | OD600 at 24 h when combined with gentamicin (E. faecalis OG1RF; compound 25 μM): OD600 = 0; Synergistic effect when combined with gentamicin (E. faecalis OG1RF; compound 25 μM): Yes
5 | 3 (≈ 1.7 µg/mL) | 3 (≈ 1.7 µg/mL) | 3 (≈ 1.7 µg/mL) | CCCCOc1ccc([C@@H]2CC3(C(=O)O)C2Sc2c(C4CC4)c(Cc4cccc5ccccc45)cc(=O)n23)cc1C (stereo partly shown) [Example 23] | OD600 = 0 | Yes | substantially similar extent or to a higher extent | 5 (≈ 2.83 µg/mL) | – | –
6 | 2 (≈ 1.11 µg/mL) | 3 (≈ 1.67 µg/mL) | 3 (≈ 1.67 µg/mL) | CN(C)c1c(Cc2cccc3ccccc23)c(C2CC2)c2n(c1=O)C1(C(=O)O)C[C@@H](c3cccc(Cl)c3)C1S2 (stereo partly shown) [Example 13] | OD600 = 0 | Yes | substantially similar extent or to a higher extent | 4 (≈ 2.23 µg/mL) | 25 (≈ 13.9 µg/mL) | E. faecalis activity, combination with gentamicin compared to gentamicin alone, compound alone and comparative example alone (E. faecalis OG1RF; [7]): much larger extent; E. faecalis activity, combination with gentamicin compared to the combination of the comparative example and gentamicin (E. faecalis OG1RF; [7]): much larger extent

Continued, molecule first:

Row | SMILES | MIC (MRSA [1]; [5]) [µM] | MIC (E. faecalis [2]; [8]) [µM] | MIC (E. faecalis [2]; [9]) [µM] | OD600 at 24 h when combined with gentamicin (E. faecalis OG1RF; compound 1 μM) | Synergistic effect when combined with gentamicin (E. faecalis OG1RF; [6]) | Growth inhibition of the pathogen of interest compared to the compound of Example 14 in WO 2018/229141 (E. faecalis [2]; compound alone) | MBC (MRSA [3]) [µM] | MBC (E. faecalis [4]) [µM] | further results
7 | O=C(O)C12C[C@@H](c3cccc(C(F)(F)F)c3)C1Sc1c(C3CC3)c(Cc3cccc4ccccc34)cc(=O)n12 (single isomer, unassigned) [Example 3] | 5 (≈ 2.74 µg/mL) | 10 (≈ 5.48 µg/mL) | – | OD600 = 0.35 at 24 h | Yes | – | 5 (≈ 2.74 µg/mL) | 25 (≈ 13.7 µg/mL) | MIC (E. faecalis [2]; Table 4, compound administered alone, n.d. = activity not observed): 10 µM (≈ 5.48 µg/mL); MBC for E. faecalis (E. faecalis [4]): 25 µM
8 | O=C(O)C12C[C@@H](c3cccc(Cl)c3)C1Sc1c(C3CC3)c(Cc3cccc4ccccc34)cc(=O)n12 (stereo partly shown) [Example 10] | – | – | – | – | – | – | – | – | MIC (E. faecalis [2]; [10]): 10 µM (≈ 5.14 µg/mL); MBC for MRSA (MRSA [3]): 10 µM; MIC (MRSA [1]; Table 3, compound alone, OD600, first figure of MIC/MBC): 5 µM (≈ 2.57 µg/mL)
9 | O=C(O)C12C[C@@H](c3ccc(C(F)(F)F)cc3)C1Sc1c(C3CC3)c(Cc3cccc4ccccc34)cc(=O)n12 (stereo partly shown) [Example 8] | 5 (≈ 2.74 µg/mL) | 5 (≈ 2.74 µg/mL) | – | – | – | substantially similar extent or to a higher extent | 10 (≈ 5.48 µg/mL) | – | –
10 | O=C(O)C12C[C@@H](c3cccc(Cl)c3)C1Sc1c(C3CC3)c(Cc3cccc4ccccc34)cc(=O)n12 (stereo partly shown) [Example 9] | 5 (≈ 2.57 µg/mL) | – | 5 (≈ 2.57 µg/mL) | OD600 = 0.1 | Yes | substantially similar extent or to a higher extent | – | 25 (≈ 12.9 µg/mL) | MIC (E. faecalis [2]; [10]): 5 µM (≈ 2.57 µg/mL); MBC for MRSA (MRSA [3]): 1 µM; MBC for E. faecalis (E. faecalis [4]): 25 µM
